Assay results taken from US20110230476A1, “PI3 KINASE INHIBITORS AND USES THEREOF” (AVILA THERAPEUTICS, INC., priority 2009, published 2011).

molecular target: T1, PI3Kα (p110α/p85α) (Homo sapiens, UniProt P42336); assay: HTRF assay, potency against active PI3Kα; format: biochemical; conditions: HTRF; [ATP]=50 μM, [di-C8-PIP2]=10 μM; 30 min pre-incubation; read-out: PI3Kα Inhibition
T1 construct: purchased BPS Bioscience (San Diego, Calif.) or Millipore (Billerica, Mass.)
Method: Homogeneous Time Resolved Fluorescence (HTRF) Assay Protocol for Potency Assessment Against the Active Forms of PI3Kα, PI3Kβ, and PI3Kγ
The mechanics of the assay platform are best described by the vendor (Millipore, Billerica, Mass.) on their website at the following URL: www.millipore.com/coa/tech1/74jt4z.
Briefly, Stop solution (Stop A, #33-007 and Stop B, #33-009; 3:1 ratio) and Detection Mix (from DMC, #33-015 with DMA, #33-011 and DMB, #33-013; 18:1:1 ratio) were prepared as recommended by the manufacturer about 2 hrs prior to use. […] Lipid kinase reactions were started with the addition of 5 μL of ATP solution, mixed for 15 sec on a rotary plate shaker and incubated for 30-60 minutes at 25° C. Next, reactions were stopped with a 5 μL addition of Stop solution immediately followed by a 5 μL volume of Detection Mix. […] At the conclusion of each assay, the HTRF ratio from fluorescence emission values for each well was calculated and % Inhibition determined from averaged controls wells (+/−PI3K enzyme). % Inhibition values for each compound were then plotted against inhibitor concentration to estimate IC50 from log [Inhibitor] vs Response, Variable Slope model in GraphPad Prism from GraphPad Software (San Diego, Calif.).

T1 sequence (P42336 whole entry): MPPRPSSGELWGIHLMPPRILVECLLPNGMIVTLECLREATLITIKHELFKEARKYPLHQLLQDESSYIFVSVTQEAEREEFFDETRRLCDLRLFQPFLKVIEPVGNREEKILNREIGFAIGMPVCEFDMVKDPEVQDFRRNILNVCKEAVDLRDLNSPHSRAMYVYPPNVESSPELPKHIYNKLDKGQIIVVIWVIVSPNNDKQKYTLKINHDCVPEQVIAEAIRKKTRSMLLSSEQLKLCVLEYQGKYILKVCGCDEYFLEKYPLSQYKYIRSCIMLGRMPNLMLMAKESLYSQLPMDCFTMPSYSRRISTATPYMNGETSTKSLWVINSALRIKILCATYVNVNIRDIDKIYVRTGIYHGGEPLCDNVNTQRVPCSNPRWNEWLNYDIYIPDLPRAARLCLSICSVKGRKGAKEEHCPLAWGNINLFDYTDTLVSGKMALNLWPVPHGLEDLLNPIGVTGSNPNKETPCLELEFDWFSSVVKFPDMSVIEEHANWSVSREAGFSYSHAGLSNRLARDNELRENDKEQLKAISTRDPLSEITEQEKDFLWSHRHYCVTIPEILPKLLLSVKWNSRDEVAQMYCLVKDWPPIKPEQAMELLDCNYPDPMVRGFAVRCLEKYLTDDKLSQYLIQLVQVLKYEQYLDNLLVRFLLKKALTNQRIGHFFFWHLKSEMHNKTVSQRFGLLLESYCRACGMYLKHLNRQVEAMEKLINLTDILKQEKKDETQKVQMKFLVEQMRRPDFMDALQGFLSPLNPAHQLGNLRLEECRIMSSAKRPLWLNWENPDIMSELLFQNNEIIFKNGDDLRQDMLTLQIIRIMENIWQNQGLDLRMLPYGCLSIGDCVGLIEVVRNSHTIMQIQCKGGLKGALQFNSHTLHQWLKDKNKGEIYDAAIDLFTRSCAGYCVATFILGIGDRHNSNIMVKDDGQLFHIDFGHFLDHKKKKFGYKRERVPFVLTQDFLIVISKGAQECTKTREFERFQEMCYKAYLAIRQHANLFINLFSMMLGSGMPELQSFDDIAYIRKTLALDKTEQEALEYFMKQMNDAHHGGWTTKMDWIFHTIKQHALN
T1 sequence (P27986 whole entry partner): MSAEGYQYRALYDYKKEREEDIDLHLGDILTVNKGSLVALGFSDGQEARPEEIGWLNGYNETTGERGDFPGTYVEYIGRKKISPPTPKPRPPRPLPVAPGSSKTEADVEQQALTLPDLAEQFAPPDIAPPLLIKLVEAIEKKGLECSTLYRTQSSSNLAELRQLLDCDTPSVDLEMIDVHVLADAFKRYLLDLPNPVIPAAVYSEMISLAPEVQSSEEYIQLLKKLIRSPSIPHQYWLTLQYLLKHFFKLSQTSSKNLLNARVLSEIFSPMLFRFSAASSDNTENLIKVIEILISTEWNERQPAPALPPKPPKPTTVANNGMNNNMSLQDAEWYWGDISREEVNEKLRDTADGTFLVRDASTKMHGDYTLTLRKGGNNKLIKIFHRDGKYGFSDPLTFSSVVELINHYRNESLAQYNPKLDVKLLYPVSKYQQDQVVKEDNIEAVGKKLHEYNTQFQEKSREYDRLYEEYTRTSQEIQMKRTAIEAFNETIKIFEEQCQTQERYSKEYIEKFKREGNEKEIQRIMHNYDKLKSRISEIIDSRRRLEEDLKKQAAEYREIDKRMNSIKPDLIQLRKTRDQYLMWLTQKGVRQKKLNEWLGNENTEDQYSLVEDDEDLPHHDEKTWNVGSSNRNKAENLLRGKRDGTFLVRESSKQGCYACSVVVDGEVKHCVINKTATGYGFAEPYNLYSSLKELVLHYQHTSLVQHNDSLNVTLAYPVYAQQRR

SMILES	IC50
C=CC(=O)N1CCc2ccc(-c3cc4nc(-c5cccc(O)c5)nc(N5CCOCC5)c4s3)cc2C1 [II-a-106, 1-(7-(2-(3-hydroxyphenyl)-4-morpholinothieno[3,2-d]pyrimidin-6-yl)-3,4-dihydroisoquinolin-2(1H)-yl)prop-2-en-1-one]	10 to 100 nM
C=CC(=O)NCc1ccc(-c2cc3nc(-c4cccc5[nH]ncc45)nc(N4CCOCC4)c3s2)cc1 [II-a-107, N-(4-(2-(1H-indazol-4-yl)-4-morpholinothieno[3,2-d]pyrimidin-6-yl)benzyl)acrylamide]	100 to 1000 nM
C/C=C/C(=O)CCC(=O)N1CCc2cc(-c3cc4nc(-c5cccc(O)c5)nc(N5CCOCC5)c4s3)ccc2C1 [II-a-108, (E)-1-(6-(2-(3-hydroxyphenyl)-4-morpholinothieno[3,2-d]pyrimidin-6-yl)-3,4-dihydroisoquinolin-2(1H)-yl)hept-5-ene-1,4-dione]	< 10 nM
C/C=C/C(=O)CCC(=O)NC1CCN(c2ccc(-c3cc4nc(-c5cccc(O)c5)nc(N5CCOCC5)c4s3)cc2)CC1 [II-a-109, (E)-N-(1-(4-(2-(3-hydroxyphenyl)-4-morpholinothieno[3,2-d]pyrimidin-6-yl)phenyl)piperidin-4-yl)-4-oxohept-5-enamide]	< 10 nM
C=CC(=O)NC1CCN(c2ccc(-c3cc4nc(-c5cccc6[nH]ncc56)nc(N5CCOCC5)c4s3)cc2)CC1 [II-a-110, N-(1-(4-(2-(1H-indazol-4-yl)-4-morpholinothieno[3,2-d]pyrimidin-6-yl)phenyl)piperidin-4-yl)acrylamide]	100 to 1000 nM
C=CC(=O)N1CCC(O)(CCc2cc3nc(-c4cccc(O)c4)nc(N4CCOCC4)c3s2)CC1 [II-a-111, 1-(4-hydroxy-4-(2-(2-(3-hydroxyphenyl)-4-morpholinothieno[3,2-d]pyrimidin-6-yl)ethyl)piperidin-1-yl)prop-2-en-1-one]	10 to 100 nM
O=C(C=C1COC1)CCC(=O)N1CCN(Cc2cc3nc(-c4cccc5[nH]ncc45)nc(N4CCOCC4)c3s2)CC1 [II-a-113, 1-(4-((2-(1H-indazol-4-yl)-4-morpholinothieno[3,2-d]pyrimidin-6-yl)methyl)piperazin-1-yl)-5-(oxetan-3-ylidene)pentane-1,4-dione]	> 1000 nM
C/C=C/C(=O)CCC(=O)N1CCN(Cc2cc3nc(-c4ccnc5[nH]ccc45)nc(N4CCOCC4)c3s2)CC1 [II-a-114, (E)-1-(4-((4-morpholino-2-(1H-pyrrolo[2,3-b]pyridin-4-yl)thieno[3,2-d]pyrimidin-6-yl)methyl)piperazin-1-yl)hept-5-ene-1,4-dione]	100 to 1000 nM
C=CC(=O)N1CCC2(CC1)CCN(C(=O)c1cc3nc(-c4cccc(O)c4)nc(N4CCOCC4)c3s1)CC2 [II-a-119, 1-(9-(2-(3-hydroxyphenyl)-4-morpholinothieno[3,2-d]pyrimidine-6-carbonyl)-3,9-diazaspiro[5.5]undecan-3-yl)prop-2-en-1-one]	100 to 1000 nM
C=CC(=O)N1CCC(N2CCN(C(=O)c3cc4nc(-c5cccc(O)c5)nc(N5CCOCC5)c4s3)CC2)CC1 [II-a-120, 1-(4-(4-(2-(3-hydroxyphenyl)-4-morpholinothieno[3,2-d]pyrimidine-6-carbonyl)piperazin-1-yl)piperidin-1-yl)prop-2-en-1-one]	100 to 1000 nM
C=CC(=O)NCC(=O)N1CCc2cc(-c3cc4nc(-c5cccc(O)c5)nc(N5CCOCC5)c4s3)ccc2C1 [II-a-121, N-(2-(6-(2-(3-hydroxyphenyl)-4-morpholinothieno[3,2-d]pyrimidin-6-yl)-3,4-dihydroisoquinolin-2(1H)-yl)-2-oxoethyl)acrylamide]	100 to 1000 nM
C=CC(=O)NCC(=O)N1CCCc2cccc(-c3cc4nc(-c5cccc(O)c5)nc(N5CCOCC5)c4s3)c21 [II-a-124, N-(2-(8-(2-(3-hydroxyphenyl)-4-morpholinothieno[3,2-d]pyrimidin-6-yl)-3,4-dihydroquinolin-1(2H)-yl)-2-oxoethyl)acrylamide]	100 to 1000 nM
O=C(/C=C/c1ncc[nH]1)CCC(=O)N1CCN(Cc2cc3nc(-c4cccc5[nH]ncc45)nc(N4CCOCC4)c3s2)CC1 [II-a-125, (E)-1-(4-((2-(1H-indazol-4-yl)-4-morpholinothieno[3,2-d]pyrimidin-6-yl)methyl)piperazin-1-yl)-6-(1H-imidazol-2-yl)hex-5-ene-1,4-dione]	100 to 1000 nM
C=CC(=O)NCC(=O)NCc1ccc(-c2cc3nc(-c4cccc5[nH]ncc45)nc(N4CCOCC4)c3s2)cc1 [II-a-128, N-(2-(4-(2-(1H-indazol-4-yl)-4-morpholinothieno[3,2-d]pyrimidin-6-yl)benzylamino)-2-oxoethyl)acrylamide]	100 to 1000 nM
Cn1ccnc1/C=C/C(=O)CCC(=O)N1CCN(Cc2cc3nc(-c4cccc5[nH]ncc45)nc(N4CCOCC4)c3s2)CC1 [II-a-129, (E)-1-(4-((2-(1H-indazol-4-yl)-4-morpholinothieno[3,2-d]pyrimidin-6-yl)methyl)piperazin-1-yl)-6-(1-methyl-1H-imidazol-2-yl)hex-5-ene-1,4-dione]	100 to 1000 nM
CC(C)(C)/C=C/C(=O)CCC(=O)N1CCN(Cc2cc3nc(-c4cccc5[nH]ncc45)nc(N4CCOCC4)c3s2)CC1 [II-a-131, (E)-1-(4-((2-(1H-indazol-4-yl)-4-morpholinothieno[3,2-d]pyrimidin-6-yl)methyl)piperazin-1-yl)-7,7-dimethyloct-5-ene-1,4-dione]	100 to 1000 nM
C=CC(=O)NCC(=O)N1CCC(O)(c2cc3nc(-c4cccc5[nH]ncc45)nc(N4CCOCC4)c3s2)CC1 [II-a-134, N-(2-(4-(2-(1H-indazol-4-yl)-4-morpholinothieno[3,2-d]pyrimidin-6-yl)-4-hydroxypiperidin-1-yl)-2-oxoethyl)acrylamide]	100 to 1000 nM
O=C(/C=C/c1ccccc1)CCC(=O)N1CC=C(c2cc3nc(-c4cccc5[nH]ncc45)nc(N4CCOCC4)c3s2)CC1 [II-a-135, (E)-1-(4-(2-(1H-indazol-4-yl)-4-morpholinothieno[3,2-d]pyrimidin-6-yl)-5,6-dihydropyridin-1(2H)-yl)-6-phenylhex-5-ene-1,4-dione]	100 to 1000 nM
O=C(/C=C/c1ccccc1)CCC(=O)N1CCC(O)(c2cc3nc(-c4cccc5[nH]ncc45)nc(N4CCOCC4)c3s2)CC1 [II-a-136, (E)-1-(4-(2-(1H-indazol-4-yl)-4-morpholinothieno[3,2-d]pyrimidin-6-yl)-4-hydroxypiperidin-1-yl)-6-phenylhex-5-ene-1,4-dione]	100 to 1000 nM
O=C(CCl)N1CCN(Cc2cc3nc(-c4cccc5[nH]ncc45)nc(N4CCOCC4)c3s2)CC1 [II-a-145, 1-(4-((2-(1H-indazol-4-yl)-4-morpholinothieno[3,2-d]pyrimidin-6-yl)methyl)piperazin-1-yl)-2-chloroethanone]	100 to 1000 nM
C/C=C/C(=O)OCC(=O)N1CCN(Cc2cc3nc(-c4cccc5[nH]ncc45)nc(N4CCOCC4)c3s2)CC1 [II-a-146, (E)-2-(4-((2-(1H-indazol-4-yl)-4-morpholinothieno[3,2-d]pyrimidin-6-yl)methyl)piperazin-1-yl)-2-oxoethyl but-2-enoate]	> 1000 nM
C=CC(=O)NOCC(=O)N1CCN(Cc2cc3nc(-c4cccc5[nH]ncc45)nc(N4CCOCC4)c3s2)CC1 [II-a-147, N-(2-(4-((2-(1H-indazol-4-yl)-4-morpholinothieno[3,2-d]pyrimidin-6-yl)methyl)piperazin-1-yl)-2-oxoethoxy)acrylamide]	100 to 1000 nM
C/C=C(\C)C(=O)CCC(=O)N1CCN(Cc2cc3nc(-c4cccc5[nH]ncc45)nc(N4CCOCC4)c3s2)CC1 [II-a-149, (E)-1-(4-((2-(1H-indazol-4-yl)-4-morpholinothieno[3,2-d]pyrimidin-6-yl)methyl)piperazin-1-yl)-5-methylhept-5-ene-1,4-dione]	100 to 1000 nM
CN(C)C/C=C/C(=O)NC1CCN(c2ccc(-c3cc4nc(-c5cccc(O)c5)nc(N5CCOCC5)c4s3)cc2)CC1 [II-a-150, (E)-4-(dimethylamino)-N-(1-(4-(2-(3-hydroxyphenyl)-4-morpholinothieno[3,2-d]pyrimidin-6-yl)phenyl)piperidin-4-yl)but-2-enamide]	10 to 100 nM
C=CC(=O)Nc1ccc(CCNC(=O)c2cc3nc(-c4cccc5[nH]ncc45)nc(N4CC5(COC5)C4)c3s2)cc1 [II-a-151, N-(4-acrylamidophenethyl)-2-(1H-indazol-4-yl)-4-(2-oxa-6-azaspiro[3.3]heptan-6-yl)thieno[3,2-d]pyrimidine-6-carboxamide]	> 1000 nM
C=CC(=O)NCC12CCC(c3cc4nc(-c5cccc6[nH]ncc56)nc(N5CCOCC5)c4s3)(CC1)OC2 [II-a-153, N-((1-(2-(1H-indazol-4-yl)-4-morpholinothieno[3,2-d]pyrimidin-6-yl)-2-oxabicyclo[2.2.2]octan-4-yl)methyl)acrylamide]	100 to 1000 nM
C=CC(=O)Nc1ccc(C(=O)N2CC=C(c3cc4nc(-c5cccc(O)c5)nc(N5CCOCC5)c4s3)CC2)cc1OCCCN [II-a-155, N-(2-(3-aminopropoxy)-4-(4-(2-(3-hydroxyphenyl)-4-morpholinothieno[3,2-d]pyrimidin-6-yl)-1,2,3,6-tetrahydropyridine-1-carbonyl)phenyl)acrylamide]	10 to 100 nM
